Experimental data as given in US20220112470A1, “SYSTEMS AND METHODS FOR METABOLIC ENGINEERING” (THE TRUSTEES OF COLUMBIA UNIVERSITY IN THE CITY OF NEW YORK, priority 2019, published 2022).

What was measured:
LexA-TetR fusion protein = target: T1, LexA-TetR fusion protein (Escherichia coli, UniProt P04483); test: Y3H LacZ assay for tetracyclines; assay type: cell-based, Saccharomyces cerevisiae
T1 construct: expressed in transfected cells; host or cells: Saccharomyces cerevisiae: FY250-derived PBA-8 (LacZ), LW2635-derived PBA-14 (URA3 growth), FY250-derived HL-2-4-1 (mCherry); the other entry of the earlier key: lexA (P0A7C2, LexA repressor)
Protocol: Protocol for Y3H LacZ Assay. […] Pelleting and resuspension were repeated once more. […] The assay plate was placed in the shaker overnight. OD measurements were then taken after 24 h, and the cells ere pelleted and resuspended in 100 μL of Z-buffer (60 mM Na2HPO4, 40 mM NaH2PO4, 10 mM KCl, 2 mM MgSO4, pH adjusted to 7, 2.7 mL/L of β-mercaptoethanol added fresh the day of the assay). The cells were pelleted again, resuspended in 100 μL of Y-PER buffer (Fisher Scientific, no. 78990), and lysed for 30 min at rt before the addition of o-nitrophenyl β-Dgalactopyranoside (ONPG) in Z-buffer (8.5 μL, 10 mg/mL). After 90 min, a Na2CO3 solution (1 M, 110 μL) was added to quench the reaction. After pelleting at 3000 rpm, 175 μL of the supernatant was transferred into flat clear-bottom 96-well plates (Corning no. 353072), and OD420 was measured. The limit of detection was calculated as the concentration of molecule at which the signal-to-noise ratio of the assay was >3:1.^32,33

[1] = relative to tetracycline, literature (ref. 55); cited from earlier work
[2] = system: LexA-TetR fusion proteins of TetR classes A, B, C, D, E, G and H; test: Y3H LacZ assay with varying TetR classes; assay type: cell-based, Saccharomyces cerevisiae; details: FIG. 2B
Protocol: Y3H Strain Construction. LexA-TetR Plasmids. Plasmids PBA-Gib5 and HL-249-1 through HL-249-6 encoding LexA-TetR protein fusions for the various TetR classes were cloned by Gibson Assembly of the appropriate TetR sequence with pMW103 digested with restriction enzymes BamHI-HF and EcoRI-HF (Table 3). All TetR sequences with the exception of B) were obtained as IDT gBlocks. TetR(B) sequence was amplified from pET21d-TetR, courtesy of A. Davidson.^25,26
LacZ Assay Strain Construction. V506 was grown overnight in UT-media.^27 The culture was then diluted […] with UT- and plated on UT-plates. Single colonies were streaked on HTU- and UT-plates and a streak growing on UT- but not on HTU-, indicating the loss of the pMW3-(GSG)2rGR2 plasmid, was glycerol stocked as PBA5. This strain was further used for the transformation of the LexA-TetR plasmids to generate LacZ assay strains PBA8 and HL-260-1 through HL-260-7.
Protocol for Y3H LacZ Assay. […] Pelleting and resuspension were repeated once more. […] The assay plate was placed in the shaker overnight. […] After pelleting at 3000 rpm, 175 μL of the supernatant was transferred into flat clear-bottom 96-well plates (Corning no. 353072), and OD420 was measured. The limit of detection was calculated as the concentration of molecule at which the signal-to-noise ratio of the assay was >3:1.^32,33

TetR [3] = target: T2, TetR (Escherichia coli, UniProt P04483); details: literature (ref. 37); cited from earlier work
TetR [4] = target: T2, TetR; details: literature (ref. 37); cited from earlier work; remark: listed apart in the source
[5] = target: LexA-TetR(B) fusion protein (Escherichia coli, UniProt P04483); details: purified TAN-1612 0.5 μM in assay well, 10 μM CID, FIG. 4B
Protocol: Protocol for Fluorescent Protein Y3H Assay. Fresh patches of Y3H strain HL-2-4-1 were inoculated into HTU-media (1 mL) in 24-well plates (flat, clear bottom, Corning no. 3526) and placed in the shaker. After 24 h, the cells were pelleted by centrifugation at 3250 rpm and resuspended in H2O (1 mL). Pelleting and resuspension were repeated once more. OD600 was measured by diluting 10× into H2O, and the cells were diluted accordingly into H2O for OD600=1 to be used as a 10× solution. A total of 20 μL of cells of OD600=1 were added to the assay plate as the last component in the assay plate (flat, clear bottom, black 96-well plate, Corning no. 3603). […] Starting conditions in the assay plate were OD600=0.1, 2% galactose, 2% raffinose, 0% glucose, 1×HTU-, 10 μM CID, 2% DMSO. The assay plate was placed in the 30° C. shaker overnight before measuring OD600 and 620 nm fluorescence (λex=588 nm).^31
Overnight cultures were used to inoculate 100 mL of YPD in 500 mL conical flasks with a starting OD600 of 0.08. After 68 h, 1 mL of culture was pelleted in 1.5 mL Eppendorf tubes at 14 000 rpm, sterile filtered, and diluted 20× into H2O to be used as a 10× stock solution.
The plate was covered with two layers of SealMate film (Excel Scientific, SM-KIT-BS) and placed in a shaker overnight. […]

**Q.** What does the source list for 9-NH2-minocycline?
**A.** concentrations differentiated by the Y3H system (range) (LexA-TetR fusion protein; LacZ reporter, competition with Min-Mtx CID, FIG. 2C): 0.2 to 20 µM; acid stability [1]: high acid stability relative to tetracycline

**Q.** Which “reporter gene output dependence on CID” value (LexA-TetR fusion protein; varying concentrations of Min-Mtx CID, FIG. 2A) does the source give for `CN(C)c1cc(NC(=O)CNC(=O)CC[C@H](NC(=O)c2ccc(N(C)Cc3ccc4nc(N)nc(N)c4c3)cc2)C(=O)O)c(O)c2c1C[C@H]1C[C@H]3C(N(C)C)C(O)=C(C(N)=O)C(=O)[C@@]3(O)C(O)=C1C2=O` (some centres unmarked) [Min-Mtx CID] here?
**A.** dependent upon the presence of the CID

**Q.** What about the “response to the CID, best TetR classes” value ([2]; TetR(B) and TetR(G)) of the same molecule?
**A.** showed the best response to the CID

**Q.** And the “responsiveness of the Y3H system to the CID” value ([2]; all TetR classes tested as protein receptors)?
**A.** responsive to the CID with all known TetR classes except for the TetR(C) variant used

**Q.** Which results are given for `Cc1c2c(c(O)c3c(O)cccc13)C(=O)C1(O)C(=O)C(C(N)=O)=C(O)CC1C2` (centres unmarked) [4-de(dimethylamino)-anhydrotetracycline]?
**A.** binding to TetR (TetR [3]): possible to detect binding; induction in TetR-TetO-based assay (TetR [4]): no induction was detected

**Q.** Which “Y3H signal (mCherry) of purified compound spiked into nonproducer supernatants” value [5] does the source give for `COc1cc(O)c2c(O)c3c(cc2c1)CC1(O)CC(=O)C(C(C)=O)=C(O)C1(O)C3=O` (centres unmarked) [TAN-1612] here?
**A.** resembles the signal obtained with producer supernatant
